Source: patent EP0139627A1, “Process for the preparation of 5,10-dihydro-1H-dibenzo [B,E] [1,4] diazepin-11-ones substituted in position 5” (ARZNEIMITTELWERK DRESDEN GmbH, priority 1983, dated 1985)
Read-outs that look alike come from different tables or passages of the source.

Legend:
[1] = system: streßinduzierten Magenulzera; experiment: Inhibition of stress-induced gastric ulcers (immobilisation ulcer, method of Brodie); type: in vivo, Ratten; conditions: Rattus norvegicus, read-out: Immobilisationsulkus ED50
Source text: Die Hemmwirkung auf die Bildung von streßinduzierten Magenulzera wurde nach der Methode von D.A.Brodie, Gastroenterolody, 38 (1960), 50, an weiblichen Ratten im Gewicht von 150 - 180 Gramm vom VEB Versuchstierproduktion Schönwalde bestimmt. Die Nahrungskarenz vor Versuchsbeginn betrug 48 Stunden, bei Wasser ad libitum. Die Testsubstanzen wurden unmittelbar vor Versuchsbeginn oral, mittels Schlundsonde appliziert. Die Immobilisation erfolgte mittels Gipsbinden über 18 Stunden. Während der Versuchsdauer war die Raumtemperatur konstant 20° C. Nach Versuchsende wurden die Tiere durch Äther getötet, die Mägen entnommen, entlang der kleinen Kurvatur aufgeschnitten und die Drüsenschleimhautdefekte nach Zahl und Länge im Vergleich zur Kontrollgruppe beurteilt. Für die statistische Berechnung diente die Probit-Regressions-Analyse.

Größe der Pupille [2] = conditions: mouse, in vivo, po
Source text: (§1) Die Wirkung der Substanzen auf die Größe der Pupille wurde an weiblichen Mäusen im Gewicht zwischen 18 und 23 Gramm nach der Versuchsordnung von R.Pulewka, Exp.Pathol. […] 30, 60, 90, 120, 180 und 240 Minuten nach oraler Präparatgabe wurde die Pupillenweite bestimmt und die x-fache Veränderung zum Ausgangswert berechnet. Als ED3-fach gilt die Dosis, bei der eine dreifache Pupillenerweiterung im Vergleich zum Ausgangswert auftritt.

[3] = system: phenylbutazoninduzierte Magenulzera; experiment: Inhibition of phenylbutazone-induced gastric ulcers (model of Beattie et al.); type: in vivo, Ratten; conditions: Rattus norvegicus, 48 h; female rats, oral dose half an hour before each s.c. injection of 150 mg/kg Phenylbutazon on two days; read-out: Phenylbutazonulkus ED50
Method: Die Hemmwirkung der Verbindungen auf phenylbutazoninduzierte Magenulzera wurde in Anlehnung an das Modell von Beattie und Mitarbeiter, Arzneimittelforschung, 29, (1979), 1812 ermittelt. Für die Untersuchung kamen weibliche Ratten der hauseigenen Zucht im Gewicht von 150 - 180 Gramm zur Anwendung.
Die Nahrungskarenz vor Versuchsbeginn betrug 24 Stunden, bei Wasser ad libitum. Während des Versuchs wurden die Tiere im Klimaraum bei einer Temperatur zwischen 22° C und 23° C gehalten. Die Ratten erhielten zwei Tage hintereinander jeweils 7 Uhr morgens eine s.c. Injektion von 150 mg/kg Phenylbutazon und die Tötung erfolgte sechs Stunden nach der letzten Injektion durch Nackenschlag. Die herauspräparierten Mägen wurden entlang der kleinen Kurvatur aufgeschnitten und die Schleimhautdefekte nach Zahl und Länge beurteilt. Die Applikation der Prüfsubstanzen erfolgte oral, eine halbe Stunde vor jeder Phenylbutazoninjektion.

in vivo = conditions: mouse, male and female mice, oral, read-out: akute Toxizität LD50
Source text: Die akute Toxizität wurde an jeweils 5 männlichen und 5 weiblichen Mäusen im Gewicht von 18 - 23 Gramm pro dosi bestimmt. Die Applikation der Prüfsubstanzen erfolgte oral. Die Berechnung der LD50 wurde nach Litchfield und Wilcoxon durchgeführt.

Größe der Pupille [4] = experiment: Effect on pupil size (mydriasis, method of Pulewka); conditions: female mice, oral; dose that widens the pupil three-fold versus baseline
Source text: as §1

[5] = female rats, oral dose immediately before start, immobilisation for 18 hours, probit regression analysis

SMILES	ED50 ([1]; po, 18 h) [mg/kg]	Pupillomotorik ED3-fach (Größe der Pupille [2])	ED50 [1, 5] [mg/kg]	ED50 [3] [mg/kg]	LD50 (in vivo) [mg/kg]	Pupillomotorik ED3-fach (Größe der Pupille [4]) [mg/kg]
CN1C2CCC1CC(OC(=O)C(CO)c1ccccc1)C2 (racemic) [Atropin, reference compound]	0.6	0,8 mg/kg	–	–	–	–
O=C1Nc2cc(Cl)ccc2N(C(=O)CN(CCO)CCO)c2ccccc21 [A, 8-Chlor-5,10-dihydro-5-[bis-(2-hydroxyäthyl)amino-acetyl]-11H-dibenzo[b,e] [1,4]diazepin-11-on]	–	30 mg/kg	6	5	2000	–
O=C1Nc2ccccc2N(C(=O)CN(CCO)CCO)c2ccccc21 [B, 5,10-Dihydro-5-[bis-(2-hydroxyäthyl) -aminoacetyl]-11H-dibenzo[b,e][1,4] diazepin-11-on]	–	4 mg/kg	1	1.6	2000	–
O=C1Nc2ccccc2N(C(=O)CN2CCN(C(=O)c3ccco3)CC2)c2ccccc21 [C, 5,10-Dihydro-5-(2-{4-[(2-furanyl)-carbonyl] -1-piperazinyl}-acetyl)-11H-dibenzo[b,e] [1,4]diazepin-11-on]	–	67 mg/kg	14	20	2000	–
CN1C(=O)c2ccccc2N(C(=O)CN2CCN(C(=O)c3ccco3)CC2)c2ccc(Cl)cc21 [D, 8-Chlor-5, 10-dihydro-5-(2-{4-[(2-furanyl)-carbonyl]-1-piperazinyl}-acetyl)-10-methyl-11H-dibenzolbenzo[b,e][1,4]-diazepin-11-on]	–	250 mg/kg	26	36	1600	–
CN1C(=O)c2ccccc2N(C(=O)CN(CCO)CCO)c2ccccc21 [E, 5,10-Dihydro-10-methyl-5-[bis-{2-hydroxyäthyl)-amino-acetyl]-11H-dibenzo[b,e] [1,4]diazepin-11-on]	–	95 mg/kg	27	22	1000	–
CN1CCN(CC(=O)N2c3ccccc3C(=O)Nc3cccnc32)CC1 [Pi renzepin, Pirenzepin, reference compound]	–	–	11	18	–	30
